# Results as given in US4008331A, “Antidepressant 1,1a,6,10b-tetrahydrodibenzo-[a,e]-cyclopropa-[c]-cyclohepten-6-substitu ted oximes” (E. I. Du Pont de Nemours and Company, priority 1976, dated 1977).
# Structures can show the parent of a compound that is named as a salt. Where two headings read alike, the source gives them in different places.
# How the values were obtained:
# [1] = test system: tetrabenazine-induced depression in mice; test: Antagonism of tetrabenazine-induced sedation and depression in mice, orally at 1 hour post-drug; format: in vivo, Carworth CF1 S female mice; settings: for ED50: Mus musculus, po, 1 h
# Procedure: Relief from ptosis was recorded when exactly 2 seconds after placing the mouse facing the observer, lid closure was less than 50% in both eyes.
# [2] = Hydrolytic stability in 0.5M hydrochloric acid at 25° for 20 hrs (NMR of residue); format: physicochemical
# Procedure: For example, a solution of 0.6 g of N-(2-methylaminoethyl)-1,1a,6,10b-tetrahydrodibenzo[a,e]cyclopropa[c]cyclohepten-6-imine in 20 ml of 0.5M hydrochloric acid was stirred at 25° for 20 hrs. The solution was cooled and 10 ml of 10% sodium hydroxide solution was added, and the oil was twice extracted with a solution of 25% methylene chloride in ether. The combined organic extracts were thoroughly washed with saturated brine, dried and solvent removed. The NMR spectrum of the residue (0.5 g) indicated about 40% decomposition of the imine to the ketone occurred.
# This stability to hydrolysis is advantageous in preparation, storage, and use of pharmaceutical dosage forms.
# [3] = mice, oral, 1 hour post-drug, tetrabenazine 32 mg/kg intraperitoneally 30 minutes after compound, read-out: ED50 for prevention of exploratory loss
# [4] = mice, oral, 1 hour post-drug, tetrabenazine 32 mg/kg intraperitoneally 30 minutes after compound, read-out: ED50 for prevention of ptosis
# [5] = mice, oral, 1 hour post-drug, tetrabenazine 32 mg/kg intraperitoneally 30 minutes after compound, 60 min
# [6] = mice, oral, 1 hour post-drug, tetrabenazine 32 mg/kg intraperitoneally 30 minutes after compound, hydrochloride, 60 min
Compound,"ED50 [1, 3]","ED50 [1, 4]",further results
c1ccc2c(c1)C(=NOCCN1CCCC1)c1ccccc1C1CC21 (centres unmarked),10.4 mg/kg,4.8 mg/kg,
"CC(C)N(CCON=C1c2ccccc2C2CC2c2ccccc21)C(C)C (centres unmarked) [H CH2 CH2 N[CH(CH3)2]2, 1,1a,6,10b-Tetrahydrodibenzo[a,e]cyclopropa[c]cyclohepten-6-one 0-[2-(diisopropylamino)ethyl]oxime]",5.2 mg/kg,3.3 mg/kg,
NCCON=C1c2ccccc2C2CC2c2ccccc21 (centres unmarked) [H CH2 CH2 NH2 . HCl],,0.09 mg/kg,"ED50 for prevention of exploratory loss [1, 5]: 0.10 mg/kg"
"CN(C)CCON=C1c2ccccc2C2CC2c2ccccc21 (centres unmarked) [H CH2 CH2 N(CH3)2 . HCl, 1,1a,6,10b-Tetrahydrodibenzo[a,e]cyclopropa[c]cyclohepten-6-one 0-[2-(dimethylamino)ethyl]oxime hydrochloride]",,,"ED50 for prevention of exploratory loss [1, 6]: 1.4 mg/kg; ED50 for prevention of ptosis [1, 6]: 0.5 mg/kg"
"CNCCON=C1c2ccccc2C2CC2c2ccccc21 (centres unmarked) [H CH2 CH2 NHCH3, 1,1a,6,10b-Tetrahydrodibenzo[a,e]cyclopropa[c]cyclohepten-6-one 0-[2-(methylamino)ethyl]oxime]",1.9 mg/kg,0.33 mg/kg,decomposition (in words) ([2]; same procedure: 0.5M hydrochloric acid): no detectable decomposition
"NCCON=C1c2ccccc2C2CC2c2ccccc21 (centres unmarked) [H CH2 CH2 NH2, 1,1a,6,10b-Tetrahydrodibenzo[a,e]cyclopropa[c]cyclohepten-6-one 0-(2-aminoethyl)oxime]",,,"ED50 for prevention of ptosis ([1]; mice, oral, 1 hour post-drug, tetrabenazine 32 mg/kg intraperitoneally 30 minutes after compound): 0.09 mg/kg; ED50 for prevention of exploratory loss [1, 5]: 0.25 mg/kg"
"CN(C)CCC=C1c2ccccc2CCc2ccccc21 [amitriptyline, reference compound]",4.7 mg/kg,1.7 mg/kg,
"CN(C)CCON=C1c2ccccc2C2CC2c2ccccc21 (centres unmarked) [H CH2 CH2 N(CH3)2, 1,1a,6,10b-Tetrahydrodibenzo[a,e]cyclopropa[c]cyclohepten-6-one 0-[2-(dimethylamino)ethyl]oxime]",2.3 mg/kg,0.4 mg/kg,
"CNCCN=C1c2ccccc2C2CC2c2ccccc21 (centres unmarked) [N-(2-methylaminoethyl)-1,1a,6,10b-tetrahydrodibenzo[a,e]cyclopropa[c]cyclohepten-6-imine, reference compound]",,,"degraded at 20 h ([2]; 0.5 m hcl, 0.6 g in 20 ml of 0.5M hydrochloric acid, by NMR, read-out: decomposition of the imine to the ketone): ~40%"
"CN(C)CCCON=C1c2ccccc2C2CC2c2ccccc21 (centres unmarked) [H CH2 CH2 CH2 N(CH3)2, 1,1a,6,10b-Tetrahydrodibenzo[a,e]cyclopropa[c]cyclohepten-6-one 0-[3-(dimethylamino)propyl]oxime]",15.6 mg/kg,9 mg/kg,
c1ccc2c(c1)C(=NOCCN1CCOCC1)c1ccccc1C1CC21 (centres unmarked),3 mg/kg,1 mg/kg,
"CN(C)CCCN1c2ccccc2CCc2ccccc21 [imipramine, reference compound]",,,ED50 ([1]; read-out: ED50 for prevention of exploratory loss): 3 mg/kg; ED50 ([1]; read-out: ED50 for prevention of ptosis): 2.5 mg/kg
c1ccc2c(c1)C(=NOCCN1CCCCC1)c1ccccc1C1CC21 (centres unmarked),4.7 mg/kg,1.7 mg/kg,
